Assay results taken from patent US20060293309A1, “Method of treating disorders and conditions using peripherally-restricted antagonists and inhibitors” (Dynogen Pharmaceuticals, Inc., priority 2005, published 2006).

How the values were obtained:
[1] = tested on: cisplatin-induced emesis; experiment: cisplatin-induced retching and vomiting in the ferret; type: in vivo, ferret (Mustela putario furo); settings: 5 mg/kg and 10 mg/kg i.p., 6 h observation
Experimental: The suitability of a compound of the invention to reduce retching and vomiting therapeutically is assessed in an accepted animal model of cytotoxin-induced emesis. Specifically, the experiments described herein are used to investigate the effect of a compound to reduce cisplatin-induced retching and/or vomiting in the ferret. Ondansetron is used as a positive control in the model, in view of its known antiemetic activity (Rudd and Naylor, Eur. J. Pharmacol., 322: 79-82 (1997)).
Adult male ferrets (Mustela putario furo) weighing 1200-1880g are purchased from Triple F Farns (Sayre, Pa.) and housed in individual cages at standardized conditions (12:12 h light/dark cycle and 21-23° C.). […]
Experiments are performed essentially as follows. […] Following administration of the cisplatin and either the test compound, ondansetron (control) or vehicle alone, the occurrence of retching and vomiting is monitored for a period of 6 hours. […] The latency of the retching or vomiting response and the number of episodes are recorded for each animal and are summarized for each experimental group (Wright et al., Infect. Immun., 68(4): 2386-9 (2000)). […]
Cisplatin is expected to induce an emetic response in 100% of the animals receiving vehicle alone. […] The mean latency of the first response post-cicplatin administration is also determined.

[2] = target: T1, 5-HT3 human recombinant receptors from HEK-293 cells (Homo sapiens, UniProt P46098); experiment: 5-HT3 human recombinant binding assay ([3H]GR 65630)
T1 construct: expressed in transfected cells; host or cells: HEK-293
T1 sequence (P46098 24-478): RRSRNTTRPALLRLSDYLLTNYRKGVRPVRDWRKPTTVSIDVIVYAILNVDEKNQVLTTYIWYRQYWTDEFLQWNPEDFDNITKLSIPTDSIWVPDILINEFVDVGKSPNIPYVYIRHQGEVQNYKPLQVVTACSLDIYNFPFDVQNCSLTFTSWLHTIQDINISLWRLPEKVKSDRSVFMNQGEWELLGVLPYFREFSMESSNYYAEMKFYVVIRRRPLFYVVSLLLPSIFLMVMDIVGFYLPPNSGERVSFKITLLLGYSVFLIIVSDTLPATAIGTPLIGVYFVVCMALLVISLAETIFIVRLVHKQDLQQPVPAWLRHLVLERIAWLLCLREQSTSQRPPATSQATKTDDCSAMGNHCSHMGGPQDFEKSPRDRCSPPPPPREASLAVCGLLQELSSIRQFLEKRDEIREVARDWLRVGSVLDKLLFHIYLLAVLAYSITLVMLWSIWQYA
Experimental: (§1) The binding of MCI 225 QUAT to various receptors/transporters was compared to that of the non-quaternized parent compound, MCI-225. Binding assays were performed essentially according to procedures as follows.
The 5-HT3 human recombinant binding assay was performed essentially as described in Lummis et al. (1990) Eur. J. Pharmacol. 189:223-27; Hoyer et al. (1988) Mol. Pharmacol. 33:303; and Tyers et al. (1991) Therapie 46:431-435. Briefly, human recombinant receptors were from HEK-293 cells. Tritiated radioligand (GR 65630) was used. % specific binding was determined as a function of log [compound]. MDL 72222 (1 alpha H, 3 alpha, 5 alpha H-tropan-3-yl-3,5-dichlorobenzoate) was used as nonspecific determinant, reference compound and positive control.

[3] = target: T2, norepinephrine transporter (NET), human recombinant from CHO cells (Homo sapiens, UniProt P23975); experiment: norepinephrine transporter (NET) binding assay ([3H]nisoxetine)
T2 construct: expressed in transfected cells; host or cells: CHO
Experimental: as §1
The norepinephrine transporter (NET) assay was performed essentially as described in Raisman et al. (1982) Eur. J. Pharmacol. 78:345-351 (minor modifications); and Raisman and Briley (1981) Eur. J. Pharmacol. 72:423. Briefly, human recombinant receptors were from CHO cells. Tritiated radioligand (nisoxetine) was used. % specific binding was determined as a function of log [compound]. Desipramine (DMI) was used as nonspecific determinant, reference compound and positive control.

[4] = target: T3, serotonin transporter (SERT), human platelet membranes (Homo sapiens, UniProt P31645); experiment: serotonin transporter (SERT) binding assay ([3H]N-methyl citalopram)
T3 construct: Briefly, human recombinant receptors were from human platelet membranes; from tissue; host or cells: human platelet membranes
Experimental: Binding assays were performed essentially according to procedures as follows.
The serotonin transporter (SERT) assay was performed essentially as described in D'Armato et al. (1987) J. Pharmacol. & Exp. Ther. 242:364-371 (with modification); and Brown et al. (1986) Eur. J. Pharmacol. 123:161-165. Briefly, human recombinant receptors were from human platelet membranes. Tritiated radioligand (N-methyl citalopram) was used. % specific binding was determined as a function of log [compound]. Imipramine was used as nonspecific determinant, reference compound and positive control.

T2 sequence (P23975 whole entry): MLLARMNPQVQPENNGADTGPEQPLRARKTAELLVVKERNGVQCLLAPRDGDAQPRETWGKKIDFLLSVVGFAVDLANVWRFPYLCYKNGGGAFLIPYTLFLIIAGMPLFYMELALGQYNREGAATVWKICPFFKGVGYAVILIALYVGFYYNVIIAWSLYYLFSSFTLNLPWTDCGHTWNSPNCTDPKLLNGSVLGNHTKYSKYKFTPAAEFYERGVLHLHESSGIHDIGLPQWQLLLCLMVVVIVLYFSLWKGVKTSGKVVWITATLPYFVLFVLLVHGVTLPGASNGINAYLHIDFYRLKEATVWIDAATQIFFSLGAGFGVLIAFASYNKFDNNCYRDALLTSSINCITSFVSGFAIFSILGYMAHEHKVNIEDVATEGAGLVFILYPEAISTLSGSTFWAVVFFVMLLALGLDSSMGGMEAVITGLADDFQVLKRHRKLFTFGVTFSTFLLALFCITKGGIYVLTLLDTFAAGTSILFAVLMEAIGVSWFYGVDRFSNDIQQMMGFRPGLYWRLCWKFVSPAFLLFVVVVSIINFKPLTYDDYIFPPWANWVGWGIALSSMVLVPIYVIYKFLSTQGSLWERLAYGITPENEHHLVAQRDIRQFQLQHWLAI
T3 sequence (P31645 whole entry): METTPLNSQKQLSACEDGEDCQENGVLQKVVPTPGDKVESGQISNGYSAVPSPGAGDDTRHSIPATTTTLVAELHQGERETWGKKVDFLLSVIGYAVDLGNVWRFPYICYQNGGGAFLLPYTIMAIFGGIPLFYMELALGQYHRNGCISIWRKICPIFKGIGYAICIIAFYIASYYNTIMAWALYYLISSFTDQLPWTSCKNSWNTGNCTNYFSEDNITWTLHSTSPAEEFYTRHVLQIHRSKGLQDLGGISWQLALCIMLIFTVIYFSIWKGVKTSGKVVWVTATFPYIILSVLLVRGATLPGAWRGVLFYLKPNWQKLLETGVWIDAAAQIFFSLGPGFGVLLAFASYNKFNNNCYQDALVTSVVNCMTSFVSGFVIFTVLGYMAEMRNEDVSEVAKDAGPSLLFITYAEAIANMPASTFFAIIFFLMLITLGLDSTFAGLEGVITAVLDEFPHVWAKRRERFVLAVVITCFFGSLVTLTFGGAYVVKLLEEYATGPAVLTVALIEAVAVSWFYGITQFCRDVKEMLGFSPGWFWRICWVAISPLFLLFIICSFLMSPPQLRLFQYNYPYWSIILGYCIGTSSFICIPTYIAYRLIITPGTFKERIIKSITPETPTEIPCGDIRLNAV

Row | Structure (SMILES) | latency of the first emetic response induced by cisplatin [1] | number of emetic events induced by cisplatin [1] | 5-HT3 (hr) % specific binding ([2]; Conc. 1.00E−06) | 5-HT3 (hr) % specific binding ([2]; Conc. 1.00E−08) | 5-HT3 (hr) % specific binding ([2]; Conc. 1.00E−10) | NET (hr) % specific binding ([3]; Conc. 1.00E−06) | NET (hr) % specific binding ([3]; Conc. 1.00E−08) | NET (hr) % specific binding ([3]; Conc. 1.00E−10) | SERT (h) % specific binding ([4]; Conc. 1.00E−06) | SERT (h) % specific binding ([4]; Conc. 1.00E−08) | SERT (h) % specific binding ([4]; Conc. 1.00E−10)
1 | Cc1nccn1CC1CCc2c(c3ccccc3n2C)C1=O (centres unmarked) [Ondansetron, ondansetron] | increase the latency | reduce the number of emetic events |  |  |  |  |  |  |  |  | 
2 | Cc1cc2c(-c3ccccc3F)nc(N3CCNCC3)nc2s1 [compound 225, 4-(2-fluoro-phenyl)-6-methyl-2-piperazin-1-yl-thieno[2,3-d]pyrimidine] |  |  | 100% | 22% | 0% | 104% | 72% | 17% | 94% | 10% | 1%
